Experiment [1] has as its target T1, GST-LXRβ ligand-binding domain (Homo sapiens, UniProt P55055, INS174Q).
T1 construct: amino acids 156-461; NP009052; made in house; host or cells: E. coli
T1 sequence (P55055 with tags, fused parts or gaps INS174Q limits assumed): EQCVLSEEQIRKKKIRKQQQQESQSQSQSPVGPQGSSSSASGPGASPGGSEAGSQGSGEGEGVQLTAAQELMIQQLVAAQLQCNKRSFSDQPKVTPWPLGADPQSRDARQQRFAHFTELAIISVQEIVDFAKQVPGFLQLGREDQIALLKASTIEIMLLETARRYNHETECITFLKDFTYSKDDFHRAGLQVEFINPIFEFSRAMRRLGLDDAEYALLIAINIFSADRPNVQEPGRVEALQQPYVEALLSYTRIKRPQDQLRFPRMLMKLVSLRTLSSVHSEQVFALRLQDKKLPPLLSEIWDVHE
As to the kind of experiment: TR-FRETβ activity assay (NCoA3 coactivator peptide recruitment). The class given is biochemical. The note with it: 1 μM 24(S)-25-epoxycholesterol as prestimulating agonist; inverse agonist unless *. In short, it runs like this:
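Coactivator recruitment read as TR-FRET (ex 340, em 615 and 665 nm) after 1 h equilibration at 4° C, in triplicate. Mix held 76 nM GST-tagged LXRβ LBD (aa 156-461, E. coli), 400 nM biotin-NCoA3 peptide, Tb-cryptate anti-GST, streptavidin-XL665, 240 mM KCl buffer.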

The next experiment addresses T2, LXRα full length (FL) (Homo sapiens, UniProt Q13133).
T2 construct: the full length (FL) proteins of LXRα (amino acids 1-447); NP005684; expressed in transfected cells; host or cells: HEK293
T2 sequence (Q13133 1-447): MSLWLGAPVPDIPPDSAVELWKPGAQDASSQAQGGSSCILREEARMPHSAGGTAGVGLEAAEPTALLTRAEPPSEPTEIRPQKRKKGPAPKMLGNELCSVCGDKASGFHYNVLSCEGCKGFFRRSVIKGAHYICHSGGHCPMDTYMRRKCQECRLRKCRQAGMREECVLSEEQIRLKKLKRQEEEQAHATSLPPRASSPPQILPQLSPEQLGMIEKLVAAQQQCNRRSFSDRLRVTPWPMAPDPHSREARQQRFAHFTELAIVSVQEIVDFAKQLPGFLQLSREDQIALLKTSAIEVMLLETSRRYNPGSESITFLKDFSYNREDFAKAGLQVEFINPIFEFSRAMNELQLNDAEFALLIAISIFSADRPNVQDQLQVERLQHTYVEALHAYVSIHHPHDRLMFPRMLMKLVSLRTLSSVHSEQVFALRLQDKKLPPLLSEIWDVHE
As to the kind of experiment: LXR Gal4 reporter transient transfection assay, mammalian two-hybrid, FL-M2H Gal4α. The class given is cell-based. The note with it: HEK293 cells; inverse agonist unless *. In short, it runs like this:
(§1)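 Mammalian two-hybrid read-out: interaction of LXRα or LXRβ (full length or ligand-binding domain, NFkB activation-domain fusions) with GAL4-fused SRC1 or NCoR domains drives GAL4-responsive firefly luciferase in HEK293 cells, normalised by Renilla cotransfection. Compounds given 4 h after transfection, ≤0.2% vehicle, cells lysed after 16 h.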

For the next experiment, the target named is T3, LXRβ full length (FL) (Homo sapiens, UniProt P55055, INS174Q).
T3 construct: the full length (FL) proteins of LXRα (amino acids 1-447); NP005684; NP009052; expressed in transfected cells; host or cells: HEK293
T3 sequence (P55055 with tags, fused parts or gaps INS174Q): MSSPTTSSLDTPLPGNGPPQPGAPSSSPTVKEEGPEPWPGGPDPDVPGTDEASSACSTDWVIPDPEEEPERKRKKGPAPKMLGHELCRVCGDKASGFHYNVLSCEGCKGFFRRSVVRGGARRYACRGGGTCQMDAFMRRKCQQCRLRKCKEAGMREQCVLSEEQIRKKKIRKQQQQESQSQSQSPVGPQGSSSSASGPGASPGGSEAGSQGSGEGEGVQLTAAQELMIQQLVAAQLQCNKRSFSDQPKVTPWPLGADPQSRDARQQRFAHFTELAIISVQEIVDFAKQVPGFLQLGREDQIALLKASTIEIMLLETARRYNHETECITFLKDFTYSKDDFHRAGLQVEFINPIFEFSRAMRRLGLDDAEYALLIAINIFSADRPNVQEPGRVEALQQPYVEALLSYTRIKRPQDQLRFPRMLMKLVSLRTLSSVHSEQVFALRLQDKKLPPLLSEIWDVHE
As to the kind of experiment: LXR Gal4 reporter transient transfection assay, mammalian two-hybrid, FL-M2H Gal4β. The class given is cell-based. The settings on record: HEK293 cells; inverse agonist unless *. In short, it runs like this: as §1

The values that follow come from patent US20200131144A1, “AMINE OR (THIO)AMIDE CONTAINING LXR MODULATORS” (Phenex-FXR GmbH, priority 2017, published 2020).

The term EC50 denotes the concentration giving half of the maximal effect. Low readings indicate an effect from little substance, high ones a need for much substance. Turning to `Cc1cnc2cccnc2c1C(=O)N(Cc1ccc(C(F)(F)F)o1)Cc1ccc(-c2cccc(C(C)(C)C(=O)O)c2)cc1Cl` [27/115], the figures for the EC50 (in experiment [1]; on LXRα full length (FL); at LXRβ full length (FL)) were 0.1 to 1 µM, below 0.1 µM and below 0.1 µM, respectively.

Turning to `Cc1nc2cccnn2c1C(=O)N(Cc1ccc(-c2cccc(C(C)(C)C(=O)O)c2)cc1)Cc1ccc(C(F)(F)F)o1` [27/116], the EC50 is 1 to 10 µM in experiment [1], 0.1 to 1 µM on LXRα full length (FL) and 0.1 to 1 µM at LXRβ full length (FL).

Turning to `Cc1nc2ncccn2c1C(=O)N(Cc1ccc(-c2cccc(C(C)(C)C(=O)O)c2)cc1)Cc1ccc(C(F)(F)F)o1` [27/117], the EC50 (in experiment [1]; at LXRα full length (FL); on LXRβ full length (FL)) was 1 to 10 µM in each case.

For the molecule `Cc1nc2ccccn2c1C(=O)N(Cc1ccc(-c2cccc(C(C)(C)C(=O)O)c2)cc1)Cc1ccc(C(F)(F)F)o1` [27/118], the EC50 (in experiment [1]; on LXRα full length (FL); at LXRβ full length (FL)) was 0.1 to 1 µM each time.

As for `Cc1nc2ccccc2c(C(=O)N(Cc2ccc(-c3cccc(C(C)(C)C(=O)O)c3)cc2)Cc2ccc(C(F)(F)F)o2)c1O` [27/120], the EC50 was 1 to 10 µM in experiment [1], 0.1 to 1 µM on LXRα full length (FL) and 0.1 to 1 µM at LXRβ full length (FL).

On to `Cc1ccc2ncnn2c1C(=O)N(Cc1ccc(-c2cccc(C(C)(C)C(=O)O)c2)cc1)Cc1ccc(C(F)(F)F)o1` [27/121], for which the EC50 (in experiment [1]; on LXRα full length (FL); at LXRβ full length (FL)) was below 0.1 µM in each case.

Regarding `Cc1nn2ncccc2c1C(=O)N(Cc1ccc(-c2cccc(C(C)(C)C(=O)O)c2)cc1)Cc1ccc(C(F)(F)F)o1` [27/122], the EC50 in experiment [1] is 1 to 10 µM; at LXRα full length (FL), 0.1 to 1 µM; on LXRβ full length (FL), 0.1 to 1 µM.

Turning to `Cc1cc(C(=O)N(Cc2ccc(C(F)(F)F)o2)Cc2ccc(-c3cccc(C(C)(C)C(=O)O)c3)cc2Cl)c2ncccc2n1` [27/123], the EC50 is 0.1 to 1 µM in experiment [1], below 0.1 µM on LXRα full length (FL) and below 0.1 µM at LXRβ full length (FL).

As for `COc1cnc2cccnc2c1C(=O)N(Cc1ccc(C(F)(F)F)o1)Cc1ccc(-c2cccc(C(C)(C)C(=O)O)c2)cc1Cl` [27/124], the EC50 (in experiment [1]; on LXRα full length (FL); on LXRβ full length (FL)) was below 0.1 µM throughout.

Regarding `Cc1ccc2nc(C)cc(C(=O)N(Cc3ccc(-c4cccc(C(C)(C)C(=O)O)c4)cc3)Cc3ccc(C(F)(F)F)o3)c2c1` [27/125], the EC50 in experiment [1] is 0.1 to 1 µM; on LXRα full length (FL) it was below 0.1 µM; at LXRβ full length (FL) it was below 0.1 µM.

As for `Cc1nc2cccnc2c(C(=O)N(Cc2ccc(-c3cccc(C(C)(C)C(=O)O)c3)cc2)Cc2ccc(C(F)F)o2)c1C` [27/126], the EC50 in experiment [1] is 0.1 to 1 µM; at LXRα full length (FL), below 0.1 µM; at LXRβ full length (FL), 0.1 to 1 µM.

On to `Cc1cc(C(=O)N(Cc2ccc(-c3cccc(C(C)(C)C(=O)O)c3)cc2)Cc2ccc(C(F)(F)F)o2)c2ccc(F)cc2n1` [27/127], for which the EC50 in experiment [1] is 1 to 10 µM; on LXRα full length (FL) it was 0.1 to 1 µM; at LXRβ full length (FL), 0.1 to 1 µM.

Regarding `CC(C)(C(=O)O)c1cccc(-c2ccc(CN(Cc3ccc(C(F)(F)F)o3)C(=O)c3cc(C4CC4)nc4ccccc34)cc2)c1` [27/129], the EC50 in experiment [1] is 0.1 to 1 µM; on LXRα full length (FL) it was 0.1 to 1 µM; on LXRβ full length (FL) it was below 0.1 µM.

Take `Cc1nc2cccnc2c(C(=O)N(Cc2ccc(-c3cccc(C(C)(C)C(=O)O)c3)cc2)Cc2nc(C(F)(F)F)cs2)c1C` [27/130]: the values for the 50% effective concentration (EC50) (in experiment [1]; on LXRα full length (FL); at LXRβ full length (FL)) were 0.1 to 1 µM, below 0.1 µM and below 0.1 µM, respectively.

For the molecule `Cc1nc2cccnc2c(C(=O)N(Cc2ccc(-c3cccc(C(C)(C)C(=O)O)c3)cc2)Cc2cncc(C(F)(F)F)c2)c1C` [27/131], the EC50 (in experiment [1]; at LXRα full length (FL); on LXRβ full length (FL)) was 0.1 to 1 µM throughout.

Take `Cc1ccc(CN(Cc2ccc(-c3cccc(C(C)(C)C(=O)O)c3)cc2)C(=O)c2c(C)c(C)nc3cccnc23)o1` [27/132]: the EC50 in experiment [1] is 1 to 10 µM; at LXRα full length (FL) it was 0.1 to 1 µM; at LXRβ full length (FL), below 0.1 µM.

As for `Cc1nc2cccnc2c(CN(Cc2ccc(-c3cccc(C(C)(C)C(=O)O)c3)cc2)Cc2ccc(C(F)(F)F)o2)c1C` [27/133], the FRETβ entry in experiment [1] is on record as “C*”. Besides, the EC50 on LXRα full length (FL) and at LXRβ full length (FL) was below 0.1 µM each time.

As for `Cc1nc2cnccc2c(C(=O)N(Cc2ccc(-c3cccc(C(C)(C)C(=O)O)c3)cc2)Cc2ccc(C(F)(F)F)o2)c1C` [27/135], the EC50 was 0.1 to 1 µM in experiment [1], below 0.1 µM at LXRα full length (FL) and below 0.1 µM at LXRβ full length (FL).

As to `Cc1cc(C)c(CN(Cc2ccc(-c3cccc(S(=O)(=O)CC(=O)NS(C)(=O)=O)c3)cc2)Cc2ccc(C(F)(F)F)o2)c(C)c1` [Example 2], the figures for the concentration for a half-maximal effect (EC50) (in experiment [1]; at LXRα full length (FL); on LXRβ full length (FL)) were 1 to 10 µM, 1 to 10 µM and 0.1 to 1 µM, respectively.

Regarding `Cc1cc(C)c(CN(Cc2ccc(-c3cccc(S(=O)(=O)CC(=O)NO)c3)cc2)Cc2ccc(C(F)(F)F)o2)c(C)c1` [Example 5, N-Hydroxy-2-((4′-((((5-(trifluoromethyl)furan-2-yl)methyl)(2,46-trimethylbenzyl)amino)methyl)-[1,1′-biphenyl]-3-yl)sulfonyl)acetamide], the EC50 (in experiment [1]; on LXRα full length (FL); on LXRβ full length (FL)) was 0.1 to 1 µM each time.

For the molecule `CONC(=O)CS(=O)(=O)c1cccc(-c2ccc(CN(Cc3ccc(C(F)(F)F)o3)Cc3c(C)cc(C)cc3C)cc2)c1` [Example 5/1], the EC50 (in experiment [1]; at LXRα full length (FL); on LXRβ full length (FL)) was 0.1 to 1 µM each time.

Turning to `Cc1cc(C)c(CN(Cc2ccc(C(F)(F)F)o2)Cc2ccc(-c3cccc(S(=O)(=O)CC(=O)O)c3)cc2F)c(C)c1` [Example 15, 2-((3′-Fluoro-4′-((((5-(trifluoromethyl)furan-2-yl)methyl)(2,4,6-trimethylbenzyl)amino)methyl)-[1,1′-biphenyl]-3-yl)sulfonyl)acetic acid], the EC50 in experiment [1] is 1 to 10 µM; on LXRα full length (FL), 0.1 to 1 µM; at LXRβ full length (FL), 0.1 to 1 µM.

`Cc1ccc2ccccc2c1C(=O)N(Cc1ccc(C(F)(F)F)o1)Cc1ccc(-c2cccc(C(C)(C)C(=O)O)c2)cc1C(N)=O` [Example 17]: the EC50 in experiment [1] is above 10 µM; at LXRα full length (FL), 1 to 10 µM; at LXRβ full length (FL), 0.1 to 1 µM.

Take `COc1cc(CN(Cc2ccc(C(F)(F)F)o2)Cc2c(C)ccc3ccccc23)ccc1-c1cc(F)c(CO)c(S(=O)(=O)CC(=O)O)c1` [Example 22, 2-((5-Fluoro-4-(hydroxymethyl)-2′-methoxy-4′-((((2-methylnaphthalen-1-yl)methyl)((5-(trifluoromethyl)furan-2-yl)methyl)amino)methyl)-[1,1′-biphenyl]-3-yl)sulfonyl)acetic acid]: the figures for the EC50 (in experiment [1]; on LXRα full length (FL); at LXRβ full length (FL)) were above 10 µM, 1 to 10 µM and 0.1 to 1 µM, respectively.

For the molecule `Cc1ccc2ccccc2c1C(=O)N(Cc1ccc(-c2cccc(S(=O)(=O)CC(=O)O)c2)cc1)Cc1ccc(C(F)(F)F)n1C` [Example 28, 2-((4′-((2-Methyl-N-((1-methyl-5-(trifluoromethyl)-1H-pyrrol-2-yl)methyl)-1-naphthamido)methyl)-[1,1′-biphenyl]-3-yl)sulfonyl)acetic acid], the EC50 in experiment [1] is above 10 µM; at LXRα full length (FL) it was 0.1 to 1 µM; at LXRβ full length (FL), 1 to 10 µM.
